# Results reported in patent publication US20100035755A1, “METHOD OF CONTROLLING WEEDS IN A TURF GRASS BY USING SULFONYLUREA COMPOUNDS” (Moghu Research Center Ltd., priority 2008, published 2010).
# What was measured:
# [1] = tested on: Cyperus amuricus; assay: Weed spectrum, greenhouse pot test; type: in vivo; conditions: two weeks after application
# In short: (§1)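 Scores reflect visual weed control two weeks after spraying, where 0 means no effect and 100 complete control. Plants grew in a greenhouse at 25˜30° C by day and 15˜25° C by night, with treatment either at sowing or at three-leaf stage.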
# [2] = tested on: Portulaca oleracea; assay: Weed spectrum, greenhouse pot test; type: in vivo; conditions: two weeks after application
# In short: as §1
# [3] = tested on: Veronica officinalis; assay: Weed spectrum, greenhouse pot test; type: in vivo; conditions: two weeks after application
# In short: as §1
# [4] = tested on: Bentgrass; assay: Turf grass selectivity, greenhouse pot test; type: in vivo, Agrostris palustris
# Source text: Turf mats of Zoysia grass, bentgrass, Kentucky bluegrass, or perennial rye grass known as cool season turfgrass or western grass were purchased and cut into a piece having 10 cm×20 cm size. Then, each piece was transplanted in a rectangular plastic pot (surface area of 300 cm^2) in which sandy loam and mixed top soil (Boo-Nong Top Soil No. 3, for horticultural use) are filled in 1:1 ratio. After the transplantation, the grasses were cut once a week to maintain the blade height at 0.5-1.0 cm and cultivated for one month in a green house of which temperature was kept at 25˜30° C. for daytime and 15˜25° C. for nighttime, respectively. Then, the ‘test chemical’ of the above Examples 1 and 2 or ‘control chemical’ was applied thereto in an amount of 400, 200, 100, 50, 25, 12, 6, 3 g ai/ha. As a “control chemical”, pyrazolsulfuron ethyl wettable agent (manufactured by Dongbu Fine Chemicals; herein after, referred to as ‘control chemical No. 1’) and flazasulfuron (manufactured by Dongbu HiTek; herein after, referred to as ‘control chemical No. 2’), both sulfonylurea herbicides for a turf grass, were used. Application was carried out by using a track sprayer (R&D Sprayer, USA) equipped with Teejet 8002 nozzle (Spraying Systems Co., USA), and the application amount was adjusted to 2,000 L/ha, which is a typical application amount for a golf course in Korea. Application solution was prepared by diluting the “test chemical” or the “control chemical” with tap water. […] The test was repeated three times in a random arrangement and the results are given in average value of each test (see Table 2 below).
# [5] = tested on: Kentucky bluegrass; assay: Actual field condition test of Example 1 (golf course); type: in vivo, Poa pratensis; conditions: 100 g ai/ha, twenty days after application
# Experimental: (§2) The test chemical of the Example 1 was applied to a turf grass field, in which Digitaria sanguinalis as a representative summer-time poaceae weed and Kyllinga brevifolia as a representative hard-to-control perennial cyperaceae weed are thriving predominantly, to evaluate weed control effect of the compound. The experiment was carried out from May to July, 2008 in the Dae-duk Research Park golf course (Doryong-dong, Yusong-gu, Daejon, South Korea). At the time of the chemical application, Digitaria sanguinalis was at about 4-leaf stage and Kyllinga brevifolia was at growth period.
# [6] = tested on: Zoysia japonica; assay: as above; type: in vivo; conditions: 100 g ai/ha, twenty days after application
# Experimental: as §2
compound,measurement,setting,value
"CCOC(=O)c1cnn(C)c1S(=O)(=O)NC(=O)Nc1nc(OC)cc(OC)n1 [Control chemical No. 1, Pyrazosulfuron ethyl, reference compound]",efficacy (0-100 scale),"[1]; Post-emergence, 12 g ai/ha",50
same,efficacy (0-100 scale),"[1]; Post-emergence, 25 g ai/ha",70
same,efficacy (0-100 scale),"[1]; Post-emergence, 50 g ai/ha",80
same,efficacy (0-100 scale),"[1]; Post-emergence, 100 g ai/ha",100
same,efficacy (0-100 scale),"[1]; Pre-emergence, 12 g ai/ha",70
same,efficacy (0-100 scale),"[1]; Pre-emergence, 25 g ai/ha",80
same,efficacy (0-100 scale),"[1]; Pre-emergence, 50 g ai/ha",100
same,efficacy (0-100 scale),"[1]; Pre-emergence, 100 g ai/ha",100
same,efficacy (0-100 scale),"[2]; Post-emergence, 12 g ai/ha",20
same,efficacy (0-100 scale),"[2]; Post-emergence, 25 g ai/ha",40
same,efficacy (0-100 scale),"[2]; Post-emergence, 50 g ai/ha",60
same,efficacy (0-100 scale),"[2]; Post-emergence, 100 g ai/ha",80
same,efficacy (0-100 scale),"[2]; Pre-emergence, 12 g ai/ha",20
same,efficacy (0-100 scale),"[2]; Pre-emergence, 25 g ai/ha",30
same,efficacy (0-100 scale),"[2]; Pre-emergence, 50 g ai/ha",70
same,efficacy (0-100 scale),"[2]; Pre-emergence, 100 g ai/ha",100
same,efficacy (0-100 scale),"[3]; Post-emergence, 12 g ai/ha",10
same,efficacy (0-100 scale),"[3]; Post-emergence, 25 g ai/ha",20
same,efficacy (0-100 scale),"[3]; Post-emergence, 50 g ai/ha",30
same,efficacy (0-100 scale),"[3]; Post-emergence, 100 g ai/ha",30
same,efficacy (0-100 scale),"[3]; Pre-emergence, 12 g ai/ha",0
same,efficacy (0-100 scale),"[3]; Pre-emergence, 25 g ai/ha",20
same,efficacy (0-100 scale),"[3]; Pre-emergence, 50 g ai/ha",30
same,efficacy (0-100 scale),"[3]; Pre-emergence, 100 g ai/ha",40
same,phytotoxicity (visual assessment 0-10),"[4]; 3 g ai/ha, 2 weeks",0
same,phytotoxicity (visual assessment 0-10),"[4]; 3 g ai/ha, 4 weeks",0
same,phytotoxicity (visual assessment 0-10),"[4]; 6 g ai/ha, 2 weeks",0
same,phytotoxicity (visual assessment 0-10),"[4]; 6 g ai/ha, 4 weeks",0
same,phytotoxicity (visual assessment 0-10),"[4]; 12 g ai/ha, 2 weeks",0
same,phytotoxicity (visual assessment 0-10),"[4]; 12 g ai/ha, 4 weeks",0
same,phytotoxicity (visual assessment 0-10),"[4]; 25 g ai/ha, 2 weeks",0
same,phytotoxicity (visual assessment 0-10),"[4]; 25 g ai/ha, 4 weeks",0
same,phytotoxicity (visual assessment 0-10),"[4]; 50 g ai/ha, 2 weeks",0
same,phytotoxicity (visual assessment 0-10),"[4]; 50 g ai/ha, 4 weeks",0
same,phytotoxicity (visual assessment 0-10),"[4]; 100 g ai/ha, 2 weeks",1
same,phytotoxicity (visual assessment 0-10),"[4]; 100 g ai/ha, 4 weeks",0
same,phytotoxicity (visual assessment 0-10),"[4]; 200 g ai/ha, 2 weeks",2
same,phytotoxicity (visual assessment 0-10),"[4]; 200 g ai/ha, 4 weeks",0
same,phytotoxicity (visual assessment 0-10),"[4]; 400 g ai/ha, 2 weeks",3
same,phytotoxicity (visual assessment 0-10),"[4]; 400 g ai/ha, 4 weeks",1
same,phytotoxicity in actual field condition,[5],0
same,phytotoxicity in actual field condition,[6],0
